Literature values as cited in patent US10544066B2, “Microencapsulated nitrification inhibitor compositions” (DOW AGROSCIENCES LLC, priority 2014, dated 2020).

Details: at 23° Celsius

SMILES: Clc1cccc(C(Cl)(Cl)Cl)n1 [nitrapyrin, 2-chloro-6-(trichloromethyl)pyridine]
- vapor pressure: 2.8×10^−3 mm Hg
